# From PubChem BioAssay AID504526 (Southern Research Specialized Biocontainment Screening …, 2011)
# Several values for one entry are separate records, joined by “and”; a condition that tells them apart may be missing. Identical values can stand only once. Activity calls are given as the source filed them. How the calls were made is not given here.
# Test system: RSV-infected cells, CPE inhibition (cell viability)
# Test: RSV cytopathic effect inhibitors, dose response, cell-based, synthesized compounds, set 6 (AID 504526)
row,SMILES,IC50
1,COc1ccccc1CNC(=O)C1CCN(S(=O)(=O)c2cccc3nonc23)CC1,3.6 µM and 4.7 µM
2,COc1ccccc1NCC(=O)Nc1cc(S(=O)(=O)N2CCOCC2)ccc1N1CCOCC1,> 50 µM (inactive)
3,Cc1ccc(C(F)(F)F)cc1NC(=O)[C@@H]1CCCN1S(=O)(=O)c1cccc2cccnc12,> 50 µM (inactive)
4,Cc1ccc(Cl)c(NC(=O)[C@@H]2CCCN2S(=O)(=O)c2cccc3cccnc23)c1,> 50 µM (inactive)
5,COc1ccccc1CNC(=O)C1CCN(S(=O)(=O)c2ccccc2)CC1,> 50 µM (inactive)
6,Cc1cccc(C)c1NC(=O)[C@@H]1CCCN1S(=O)(=O)c1cccc2cccnc12,34.6 µM
7,Cc1ccccc1CNC(=O)C1CCN(S(=O)(=O)c2cccc3nonc23)CC1,> 50 µM (inactive)
8,COc1ccc(C)c(NC(=O)[C@@H]2CCCN2S(=O)(=O)c2cccc3cccnc23)c1,3.51 µM
9,O=C(O)C1CC=CCC1C(=O)Nc1ccc(S(=O)(=O)N2CCCc3ccccc32)cc1 (centres undefined),31.4 µM
10,COc1ccccc1CNC(=O)C1CCN(S(=O)(=O)c2cccc3cccnc23)CC1,> 50 µM (inactive)
11,Cc1ccc(C)c(NC(=O)[C@@H]2CCCN2S(=O)(=O)c2cccc3cccnc23)c1,5.1 µM
12,COc1ccc(CNC(=O)C2CCN(S(=O)(=O)c3cccc4nonc34)CC2)cc1,> 50 µM (inactive)
13,COc1ccccc1CNC(=O)C1CCN(S(=O)(=O)c2cccc3scnc23)CC1,> 50 µM (inactive)
14,COCCCNC(=O)c1ccc(Cn2c(=O)c3ccc(Cl)cc3n(Cc3ccc(C)cc3)c2=O)cc1,> 50 µM (inactive)
15,Cc1ccc(Cl)cc1NC(=O)[C@@H]1CCCN1S(=O)(=O)c1cccc2cccnc12,0.22 µM
16,Cc1ccc(C(C)(C)C)cc1NC(=O)[C@@H]1CCCN1S(=O)(=O)c1cccc2cccnc12,> 50 µM (inactive)
17,COc1cccc(CNC(=O)C2CCN(S(=O)(=O)c3cccc4nonc34)CC2)c1,> 50 µM (inactive)
18,COc1ccccc1CNC(=O)[C@@H]1CCCN1S(=O)(=O)c1cccc2cccnc12,18.8 µM
19,O=C(NCc1ccccc1Cl)C1CCN(S(=O)(=O)c2cccc3nonc23)CC1,6.9 µM
20,Cc1ccc(C(C)C)cc1NC(=O)[C@@H]1CCCN1S(=O)(=O)c1cccc2cccnc12,> 50 µM (inactive)
21,COc1ccc(C)cc1NC(=O)[C@@H]1CCCN1S(=O)(=O)c1cccc2cccnc12,> 50 µM (inactive)
22,COc1ccccc1CNC(=O)C1CCN(Cc2cccc3nonc23)CC1,> 50 µM (inactive)
23,COCCCNC(=O)c1ccc(Cn2c(=O)c3ccccc3n(Cc3ccccc3)c2=O)cc1,> 50 µM (inactive)
24,COCCNC(=O)c1ccc(Cn2c(=O)c3ccccc3n(Cc3ccc(C)cc3)c2=O)cc1,2.32 µM
